Source: patent publication US9090615B2, “Adamantyl derivatives as cannabinoid receptor 2 agonists” (Hoffmann-La Roche Inc., priority 2012, dated 2015)
Read-outs that look alike come from different tables or passages of the source.

Assays:
[1] = target: T1, human CB1 receptors (Homo sapiens, UniProt P21554); assay: functional cAMP assay, CHO cells expressing human CB1; assay type: cell-based
T1 construct: expressed in transfected cells; host or cells: CHO cells
Protocol: CHO cells expressing human CB1 or CB2 receptors are seeded 17-24 hours prior to the experiment 50.000 cells per well in a black 96 well plate with flat clear bottom (Corning Costar #3904) in DMEM (Invitrogen No. 31331), 1×HT supplement, with 10% fetal calf serum and incubated at 5% CO2 and 37° C. in a humidified incubator. The growth medium was exchanged with Krebs Ringer Bicarbonate buffer with 1 mM IBMX and incubated at 30° C. for 30 min. Compounds were added to a final assay volume of 100 μl and incubated for 30 min at 30° C. Using the cAMP-Nano-TRF detection kit the assay (Roche Diagnostics) was stopped by the addition of 50 μl lysis reagent (Tris, NaCl, 1.5% Triton X100, 2.5% NP40, 10% NaN3) and 50 μl detection solutions (20 μM mAb Alexa700-cAMP 1:1, and 48 μM Ruthenium-2-AHA-cAMP) and shaken for 2 h at room temperature. The time-resolved energy transfer is measured by a TRF reader (Evotec Technologies GmbH), equipped with a ND:YAG laser as excitation source. The plate is measured twice with the excitation at 355 nm and at the emission with a delay of 100 ns and a gate of 100 ns, total exposure time 10 s at 730 (bandwidth 30 nm) or 645 nm (bandwidth 75 nm), respectively. The FRET signal is calculated as follows: FRET=T730-Alexa730-P(T645-B645) with P=Ru730-B730/Ru645-B645, where T730 is the test well measured at 730 nM, T645 is the test well measured at 645 nm, B730 and B645 are the buffer controls at 730 nm and 645 nm, respectively. cAMP content is determined from the function of a standard curve spanning from 10 μM to 0.1 nM cAMP.
EC50 values were determined using Activity Base analysis (ID Business Solution, Limited). The EC50 values for a wide range of cannabinoid agonists generated from this assay were in agreement with the values published in the scientific literature.

[2] = target: T2, human CB2 receptors (Homo sapiens, UniProt P34972); assay: functional cAMP assay, CHO cells expressing human CB2; assay type: cell-based
T2 construct: expressed in transfected cells; host or cells: CHO cells
T2 sequence (P34972 whole entry): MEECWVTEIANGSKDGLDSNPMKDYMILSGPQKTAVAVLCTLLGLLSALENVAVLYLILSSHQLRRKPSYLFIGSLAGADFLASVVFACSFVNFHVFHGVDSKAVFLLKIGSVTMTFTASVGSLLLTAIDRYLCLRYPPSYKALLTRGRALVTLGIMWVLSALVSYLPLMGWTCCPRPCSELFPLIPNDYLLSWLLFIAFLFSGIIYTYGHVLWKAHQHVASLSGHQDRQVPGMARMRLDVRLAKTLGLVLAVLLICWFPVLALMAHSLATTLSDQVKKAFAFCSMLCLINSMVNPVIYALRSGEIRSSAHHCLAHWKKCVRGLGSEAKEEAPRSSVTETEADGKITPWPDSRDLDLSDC
Protocol: The growth medium was exchanged with Krebs Ringer Bicarbonate buffer with 1 mM IBMX and incubated at 30° C. for 30 min. Compounds were added to a final assay volume of 100 μl and incubated for 30 min at 30° C. […] The time-resolved energy transfer is measured by a TRF reader (Evotec Technologies GmbH), equipped with a ND:YAG laser as excitation source. The plate is measured twice with the excitation at 355 nm and at the emission with a delay of 100 ns and a gate of 100 ns, total exposure time 10 s at 730 (bandwidth 30 nm) or 645 nm (bandwidth 75 nm), respectively.
EC50 values were determined using Activity Base analysis (ID Business Solution, Limited).

[3] = CHO cells expressing human CB1, read-out: Ec50:CB1 - hu cAMP
[4] = CHO cells expressing human CB2, read-out: Ec50:CB2 - hu cAMP

T1 sequence (P21554 whole entry): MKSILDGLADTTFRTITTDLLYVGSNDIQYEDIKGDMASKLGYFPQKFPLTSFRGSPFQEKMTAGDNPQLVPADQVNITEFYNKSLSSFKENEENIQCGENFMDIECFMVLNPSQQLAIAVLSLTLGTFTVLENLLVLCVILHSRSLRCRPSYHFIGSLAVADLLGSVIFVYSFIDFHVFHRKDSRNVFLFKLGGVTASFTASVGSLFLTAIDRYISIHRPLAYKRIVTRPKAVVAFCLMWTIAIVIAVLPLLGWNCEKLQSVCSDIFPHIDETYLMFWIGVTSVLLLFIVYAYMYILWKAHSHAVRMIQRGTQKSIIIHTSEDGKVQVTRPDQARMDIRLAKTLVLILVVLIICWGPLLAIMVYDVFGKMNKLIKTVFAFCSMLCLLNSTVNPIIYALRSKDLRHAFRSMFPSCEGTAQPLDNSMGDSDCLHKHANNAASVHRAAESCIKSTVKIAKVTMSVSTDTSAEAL

SMILES: CCCCOC1CCN(C(=O)C23CC4CC(CC(C4)C2)C3)c2ccccc21 (stereo not drawn) [Example 34, Adamantan-1-yl-(4-butoxy-3,4-dihydro-2H-quinolin-1-yl)-methanone]
- EC50 [1]: > 10000 nM
- EC50 [2]: 7.2 nM

SMILES: CC(C)OC1CCN(C(=O)C23CC4CC(CC(C4)C2)C3)c2ccccc21 (stereo not drawn) [Example 35, Adamantan-1-yl-(4-isopropoxy-3,4-dihydro-2H-quinolin-1-yl)-methanone]
- EC50 [1, 3]: > 10000 nM
- EC50 [2, 4]: 122 nM

SMILES: O=C(C1[C@H]2C[C@@H]3C[C@@H](C[C@H]1C3)C2)N1CCc2ccccc21 (stereo partly drawn) [Example 37, Adamantan-2-yl-(2,3-dihydro-indol-1-yl)-methanone]
- EC50 [1]: > 10000 nM
- EC50 [2]: 6.7 nM

SMILES: O=C(NC12CC3CC(CC(C3)C1)C2)N1CCc2ccccc21 [Example 38, 2,3-Dihydro-indole-1-carboxylic acid adamantan-1-ylamide]
- EC50 [1, 3]: > 10000 nM
- EC50 [2, 4]: 2.4 nM

SMILES: O=C(N1CCc2cc(F)c(F)cc21)C12CC3CC(CC(C3)C1)C2 [Example 39, Adamantan-1-yl-(5,6-difluoro-2,3-dihydro-indol-1-yl)-methanone]
- EC50 [1, 3]: > 10000 nM
- EC50 [2, 4]: 17.6 nM

SMILES: O=C1C2CC3CC1CC(C(=O)N1CCc4ccccc41)(C3)C2 [Example 40, 5-(2,3-Dihydro-indole-1-carbonyl)-adamantan-2-one]
- EC50 [1, 3]: > 10000 nM
- EC50 [2, 4]: 594 nM

SMILES: O=C(N1Cc2cc(Cl)c(N3CCOCC3)cc2C1)C12CC3CC(CC(C3)C1)C2 [Example 43, Adamantan-1-yl-(5-chloro-6-morpholin-4-yl-1,3-dihydro-isoindol-2-yl)-methanone]
- EC50 [1]: > 10000 nM
- EC50 [2]: 82.2 nM

SMILES: O=C(N1Cc2cccc(F)c2C1)C12CC3CC(CC(C3)C1)C2 [Example 44, Adamantan-1-yl-(4-fluoro-1,3-dihydro-isoindol-2-yl)-methanone]
- EC50 [1, 3]: > 10000 nM
- EC50 [2, 4]: 58.9 nM

SMILES: O=C(N1Cc2ccc(F)cc2C1)C12CC3CC(CC(C3)C1)C2 [Example 45, Adamantan-1-yl-(5-fluoro-1,3-dihydro-isoindol-2-yl)-methanone]
- EC50 [1, 3]: > 10000 nM
- EC50 [2, 4]: 41.7 nM
